Measured values taken from US20160115540A1, “PRODRUGS AND DRUGS” (Biogen MA Inc., priority 2013, published 2016).
Where a name gives a salt, the structure may show the parent alone.

Tested on: kidney
Test: Transcriptional profiling on Affymetrix GeneChips, single dose, naïve mice: kidney
Assay type: in vivo, C57BL/6 mice
Details: 100MMF-vs-Veh
Description: Treated mice were sacrificed at 2, 7, or 12 hours. Tissues (liver, spleen, kidney, jejunum, cortex, hippocampus, striatum and whole blood) were collected and analyzed by transcriptional profiling on mouse Affymetrix GeneChips.
Tissues (liver, spleen, kidney, jejunum, cortex, hippocampus, striatum and whole blood) were collected and analyzed by transcriptional profiling on mouse Affymetrix GeneChips.
Animals were exposed to CO2 and whole blood collected via cardiac puncture. Two 100 μl aliquots of whole blood were collected in 1.5 mL microcentrifuge tubes and snap frozen in liquid nitrogen. Peripheral (liver, spleen, kidney and jejunum) and CNS brain (cerebellum, hippocampus, striatum and cortex) tissues were harvested and snap frozen in liquid nitrogen, with special care taken to collect tissues of similar size and from the same location. All samples were stored at −80° C. until RNA extraction was conducted.
For RNA preparation, frozen tissues were placed in 2 mL RNAse-free 96-well blocks with 1.5 mL QIAzol Lysis Reagent (QIAgen) and a 3.2 mm stainless steel bead (BioSpec Products, Bartlesville, Okla.). Tissues were disrupted for four cycles of 45 seconds in a Mini-Beadbeater (Biospec Products). RNA was extracted in chloroform and the aqueous phase was mixed with an equal volume of 70% ethanol. Extracted RNA was applied to RNeasy 96 plates and purified by the spin method according to the manufacturer's protocol (RNeasy 96 Universal Tissue Protocol, QIAgen, Hilden Germany).
Automated sample amplifications and biotin labelings were carried out using the NuGEN Ovation RNA Amplification system V2 (Cat #3100), Ovation WB reagent (Cat #1300) and Encore Biotin module (Cat #4200) (NuGEN Technologies, Inc, San Carlos, Calif.) according to manufacturer's recommendations using an Arrayplex automated liquid handler (Beckman Coulter, Indianapolis, Ind.). Two micrograms of biotin labeled sscDNA probe were hybridized to Affymetrix GeneChip Affymetrix HT_MG-430_PM plate arrays with modified conditions as described in Allaire et al. Washing and staining of the hybridized arrays were completed as described in the GeneChip Expression analysis technical manual for HT plate arrays using the Genechip® Array Station (Affymetrix, Santa Clara, Calif.) with modifications as described in Allaire et al. The processed GeneChip® plate arrays were scanned using GeneTitan scanner (Affymetrix, Santa Clara, Calif.).
Affymetrix scans were subject to quality control (QC) measures. These tests included a visual inspection of the distribution of raw signal intensities and an assessment of RNA degradation, relative log expression (RLE), and normalized unsealed standard error (NUSE). All sample scans that passed these QC metrics were included in the analysis.
All CEL files were subjected to GC-content-based Robust Multi-array Average (GCRMA) normalization (version 2.20.0) (Irizarry R A, et al. Nucleic Acids Res 2003; 31:e15; Li C, et al. Genome Biol 2001; 2:[…]0032). Expression levels were log (base 2) transformed.
All calculations and analyses were carried out using R (version 2.11.1) and Bioconductor computational tools (Gentleman R. Springer Science+Business Media 2005).

## COC(=O)/C=C/C(=O)O [MMF, monomethyl fumarate]
2 h
  FC 1456319_PM_at: −2.06
  FC 1456955_PM_at: 1.60
  FC 1457189_PM_at: −1.70
  FC 1457586_PM_at: 1.61
  FC 1458096_PM_at: −1.87
  FC 1458798_PM_at: −1.56
  FC 1459091_PM_at: 2.78
  FC 1459358_PM_at: 1.56
  FC 1459516_PM_at: 1.71
  FC 1459774_PM_at: 1.63
  FC A330023F24Rik 1460033_PM_at: 1.50
  FC AA986715 1459467_PM_at: 1.68
  FC Akr1c19 (1455454_PM_at): 1.56
  FC Ankrd11 1458452_PM_at: 1.56
  FC Arl5b 1455166_PM_at: 1.64
  FC BC038331 1458295_PM_at: −1.57
  FC Bcl7a 1458503_PM_at: −1.54
  FC Cggbp1 1455658_PM_at: 1.51
  FC Gclc (1455959_PM_s_at): 1.53
  FC LOC676974 1456909_PM_at: 1.57
  FC LOC100504796 1457129_PM_at: −1.55
  FC Lonrf1 1455665_PM_at: 1.98
  FC Nufip2 1455387_PM_at: 1.61
  FC Per3 1458176_PM_at: −1.57
  FC Phf13 1455175_PM_at: 1.51
  FC Pkp2 1460511_PM_at: 1.67
  FC Ptprg 1456070_PM_at: −2.31
  FC Snx29 1456922_PM_at: −1.74
  FC Tnfsf10 1459913_PM_at: −1.60
  FC Trib3 1456225_PM_x_at: 1.56
  FC Zfp295 1457552_PM_at: 1.74
7 h
  FC 1110032F04Rik 1456509_PM_at: 4.65
  FC 1200003I10Rik /// 1200015M12Rik /// A130040M12Rik /// E430024C06Rik 1427932_PM_s_at: 1.63
  FC 1300002K09Rik 1453234_PM_at: 1.98
  FC 1444265_PM_at: 1.53
  FC 1445668_PM_at: 1.55
  FC 1447396_PM_at: −1.73
  FC 1457594_PM_at: −1.52
  FC 1459091_PM_at: 3.52
  FC 2610034E01Rik 1460483_PM_at: 1.56
  FC Abcc4 1443870_PM_at: 2.09
  FC Abhd15 1453474_PM_at: 1.64
  FC Acsl4 1451828_PM_a_at: 1.78
  FC Agps 1434919_PM_at: −1.68
  FC Agxt2l1 1452975_PM_at: −1.74
  FC Akr1b8 (1448894_PM_at): 1.86
  FC Akr1c19 (1455454_PM_at): 1.97
  FC Alas1 1424126_PM_at: 1.51
  FC Alcam 1426300_PM_at: 2.66
  FC Alcam 1426301_PM_at: 2.09
  FC Alcam 1437467_PM_at: 2.00
  FC Aldh1a7 (1418601_PM_at): 2.16
  FC Aox1 (1419435_PM_at): 2.50
  FC Asns 1433966_PM_x_at: 2.13
  FC Asns 1451095_PM_at: 2.23
  FC Atp13a3 1442145_PM_at: 1.52
  FC BC037032 1444682_PM_at: 1.69
  FC Bcat1 1430111_PM_a_at: −1.59
  FC Bcat1 1450871_PM_a_at: −1.83
  FC Bcat1 1455699_PM_at: −2.29
  FC Blvrb (1451386_PM_at): 1.83
  FC Btg1 1442018_PM_at: 1.60
  FC Cbr1 (1460196_PM_at): 1.58
  FC Cbr3 (1427912_PM_at): 9.54
  FC Cenpe 1435005_PM_at: −1.60
  FC Cml3 1421609_PM_a_at: −1.64
  FC Copg2as2 1427123_PM_s_at: 1.56
  FC Ctps 1416563_PM_at: 1.57
  FC Cul9 1439866_PM_at: −1.52
  FC Cyp51 1422533_PM_at: −1.54
  FC Cyp51 1422534_PM_at: −1.59
  FC D16Ertd778e 1445089_PM_at: −1.87
  FC D330040H18Rik 1444432_PM_at: 1.77
  FC Dbp (1418174_PM_at): −1.73
  FC Dbp (1438211_PM_s_at): −1.63
  FC Ddit4l 1439332_PM_at: 1.83
  FC Ddit4l 1444139_PM_at: 1.85
  FC Ddit4l 1451751_PM_at: 2.62
  FC Dnase2a (1430135_PM_at): 2.20
  FC Dusp5 1437199_PM_at: 1.74
  FC Eif4ebp1 1434976_PM_x_at: 1.56
  FC Endou 1449937_PM_at: 1.52
  FC Esr1 1460591_PM_at: −1.54
  FC Fam107a 1435918_PM_at: −1.77
  FC Fbxl2 1428427_PM_at: −1.68
  FC Fgf1 1441042_PM_at: −1.71
  FC Fgf1 1450869_PM_at: −1.76
  FC Fgfbp1 1419086_PM_at: 1.73
  FC Frem2 1457038_PM_at: −1.66
  FC G0s2 1448700_PM_at: 1.50
  FC G6pd2 /// G6pdx 1422327_PM_s_at: 1.86
  FC G6pdx (1448354_PM_at): 1.75
  FC Gclc (1424296_PM_at): 1.87
  FC Gclc (1455959_PM_s_at): 1.81
  FC Gclm 1418627_PM_at: 1.64
  FC Gdf15 1418949_PM_at: 1.98
  FC Gimap3 1449220_PM_at: −1.51
  FC Gjb1 1448766_PM_at: 1.50
  FC Gk5 1436210_PM_at: 1.55
  FC Gm129 1435188_PM_at: −2.12
  FC Gm3776 /// Gsta1 /// Gsta2 1421041_PM_s_at: 1.63
  FC Gpr135 1441944_PM_s_at: 1.66
  FC Gpr135 1459274_PM_at: 1.53
